Measured values taken from ChEMBL document CHEMBL5360608 (ACS Med Chem Lett, 2023).
Activity calls are given as the source filed them. The calls are words filed in the database; no cut-off is given here.

Experiments:
[1] = molecular target: T1, Sodium channel protein type 4 subunit alpha (Homo sapiens, UniProt P35499); assay: Inhibition of human Nav 1.4 expressed in HEK293T cells assessed as tonic block at 0.1 Hz by whole cell patch clamp assay; type: cell-based
[2] = molecular target: T2, Sodium channel protein type 9 subunit alpha (Homo sapiens, UniProt Q15858); assay: Inhibition of human Nav 1.7 expressed in HEK293T cells assessed as tonic block at 0.1 Hz by whole cell patch clamp assay; type: cell-based
T2 sequence (Q15858 whole entry): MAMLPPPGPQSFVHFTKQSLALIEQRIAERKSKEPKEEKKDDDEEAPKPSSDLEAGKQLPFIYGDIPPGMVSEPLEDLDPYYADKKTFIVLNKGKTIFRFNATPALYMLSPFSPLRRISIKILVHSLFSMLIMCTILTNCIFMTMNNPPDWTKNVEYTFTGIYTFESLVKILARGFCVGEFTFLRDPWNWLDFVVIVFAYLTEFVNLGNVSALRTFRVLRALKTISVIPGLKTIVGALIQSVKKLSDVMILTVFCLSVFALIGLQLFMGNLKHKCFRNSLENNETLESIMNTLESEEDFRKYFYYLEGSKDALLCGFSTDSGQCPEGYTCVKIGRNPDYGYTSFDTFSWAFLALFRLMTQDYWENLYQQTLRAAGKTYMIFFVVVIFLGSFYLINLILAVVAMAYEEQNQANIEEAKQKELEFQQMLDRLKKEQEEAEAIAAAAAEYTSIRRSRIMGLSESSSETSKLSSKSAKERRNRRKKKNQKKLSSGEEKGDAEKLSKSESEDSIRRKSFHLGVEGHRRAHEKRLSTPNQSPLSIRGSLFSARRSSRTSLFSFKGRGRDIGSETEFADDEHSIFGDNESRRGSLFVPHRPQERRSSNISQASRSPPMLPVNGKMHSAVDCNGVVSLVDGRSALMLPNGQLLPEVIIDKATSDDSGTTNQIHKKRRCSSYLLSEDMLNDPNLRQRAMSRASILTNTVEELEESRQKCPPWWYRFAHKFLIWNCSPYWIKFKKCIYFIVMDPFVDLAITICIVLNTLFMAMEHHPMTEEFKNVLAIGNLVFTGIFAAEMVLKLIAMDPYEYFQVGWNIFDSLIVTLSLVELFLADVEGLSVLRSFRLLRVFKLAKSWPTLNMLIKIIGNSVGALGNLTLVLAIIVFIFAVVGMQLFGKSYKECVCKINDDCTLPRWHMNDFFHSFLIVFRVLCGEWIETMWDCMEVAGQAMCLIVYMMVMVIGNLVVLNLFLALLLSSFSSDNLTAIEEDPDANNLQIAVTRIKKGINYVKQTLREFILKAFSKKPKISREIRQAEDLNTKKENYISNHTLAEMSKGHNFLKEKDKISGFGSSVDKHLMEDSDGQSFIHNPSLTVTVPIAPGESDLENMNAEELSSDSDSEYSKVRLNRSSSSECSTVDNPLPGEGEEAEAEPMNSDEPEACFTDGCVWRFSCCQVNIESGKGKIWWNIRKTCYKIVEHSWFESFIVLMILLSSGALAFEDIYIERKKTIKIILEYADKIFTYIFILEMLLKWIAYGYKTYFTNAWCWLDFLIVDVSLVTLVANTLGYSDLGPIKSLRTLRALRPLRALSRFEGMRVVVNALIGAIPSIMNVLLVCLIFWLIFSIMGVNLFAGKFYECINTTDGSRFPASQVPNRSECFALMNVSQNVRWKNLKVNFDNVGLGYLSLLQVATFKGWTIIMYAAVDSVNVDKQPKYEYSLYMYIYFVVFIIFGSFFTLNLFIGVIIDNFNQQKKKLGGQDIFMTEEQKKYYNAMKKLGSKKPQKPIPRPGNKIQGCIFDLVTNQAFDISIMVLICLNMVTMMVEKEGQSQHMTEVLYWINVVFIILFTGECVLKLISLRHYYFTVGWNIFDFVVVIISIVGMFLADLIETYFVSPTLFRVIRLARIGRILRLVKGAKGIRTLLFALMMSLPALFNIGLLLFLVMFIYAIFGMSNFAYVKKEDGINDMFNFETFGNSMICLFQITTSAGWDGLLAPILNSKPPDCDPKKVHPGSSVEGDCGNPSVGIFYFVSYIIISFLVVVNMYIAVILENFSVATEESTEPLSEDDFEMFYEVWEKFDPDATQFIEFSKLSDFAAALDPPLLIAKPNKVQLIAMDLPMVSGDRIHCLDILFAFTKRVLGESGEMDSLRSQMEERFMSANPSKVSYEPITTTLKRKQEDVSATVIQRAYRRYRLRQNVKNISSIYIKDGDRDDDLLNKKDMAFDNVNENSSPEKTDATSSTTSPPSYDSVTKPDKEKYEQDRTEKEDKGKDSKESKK

[3] = molecular target: T1, Sodium channel protein type 4 subunit alpha; assay: Inhibition of human Nav 1.4 expressed in HEK293T cells assessed as phasic block at 10 Hz by whole cell patch clamp assay; type: cell-based
[4] = molecular target: T2, Sodium channel protein type 9 subunit alpha; assay: Inhibition of human Nav 1.7 expressed in HEK293T cells assessed as phasic block at 10 Hz by whole cell patch clamp assay; type: cell-based
Homo sapiens [5] = species: Homo sapiens; assay: Selectivity ratio of IC50 for human Nav 1.4 expressed in HEK293T cells assessed as tonic block at 0.1 Hz to IC50 for human Nav 1.4 expressed in HEK293T cells assessed as phasic block at 10 Hz; type: cell-based
Homo sapiens [6] = species: Homo sapiens; assay: Selectivity ratio of IC50 for human Nav 1.7 expressed in HEK293T cells assessed as tonic block at 0.1 Hz to IC50 for human Nav 1.7 expressed in HEK293T cells assessed as phasic block at 10 Hz; type: cell-based
Mus musculus [7] = assay: Analgesic activity in po dosed mouse assessed as licking latency at 77 uM measured after 15 mins by hot plate test (reference value: 14.5 to 15.7 sec); type: functional; conditions: 0.25 h
Mus musculus [8] = assay: Analgesic activity in po dosed mouse assessed as licking latency at 77 uM measured after 30 mins by hot plate test (reference value: 14.5 to 15.7 sec); type: functional; conditions: 0.5 h
Mus musculus [9] = assay: Analgesic activity in po dosed mouse assessed as licking latency at 77 uM measured after 45 mins by hot plate test (reference value: 14.5 to 15.7 sec); type: functional; conditions: 0.75 h
Mus musculus [10] = assay: Analgesic activity in po dosed mouse assessed as licking latency at 77 uM measured after 60 mins by hot plate test (reference value: 14.5 to 15.7 sec); type: functional; conditions: 1 h
Mus musculus [11] = assay: Analgesic activity in po dosed mouse assessed as alterations in motor coordination at high dose by hot plate test; type: functional, organism-based
Mus musculus [12] = assay: Analgesic activity in po dosed mouse assessed as alteration in spontaneous motility at high dose by hot plate test; type: functional, organism-based
Rattus norvegicus [13] = species: Rattus norvegicus; assay: Reduction in 9-anthracene carboxylic acid induced myotonic-like condition in Wistar rat skeletal muscle fiber by measuring electable action potential at upto 10 uM by two intracellular microelectrode current-clamp method; type: functional, tissue-based; conditions: Skeletal muscle tissue
Rattus norvegicus [14] = species: Rattus norvegicus; assay: Reduction in 9-anthracene carboxylic acid induced myotonic-like condition in Wistar rat skeletal muscle fiber by measuring electable action potential at 0.3 to 10 uM by two intracellular microelectrode current-clamp method; type: functional, tissue-based; conditions: Skeletal muscle tissue, dose 0.3-10 µM

T1 sequence (P35499 whole entry): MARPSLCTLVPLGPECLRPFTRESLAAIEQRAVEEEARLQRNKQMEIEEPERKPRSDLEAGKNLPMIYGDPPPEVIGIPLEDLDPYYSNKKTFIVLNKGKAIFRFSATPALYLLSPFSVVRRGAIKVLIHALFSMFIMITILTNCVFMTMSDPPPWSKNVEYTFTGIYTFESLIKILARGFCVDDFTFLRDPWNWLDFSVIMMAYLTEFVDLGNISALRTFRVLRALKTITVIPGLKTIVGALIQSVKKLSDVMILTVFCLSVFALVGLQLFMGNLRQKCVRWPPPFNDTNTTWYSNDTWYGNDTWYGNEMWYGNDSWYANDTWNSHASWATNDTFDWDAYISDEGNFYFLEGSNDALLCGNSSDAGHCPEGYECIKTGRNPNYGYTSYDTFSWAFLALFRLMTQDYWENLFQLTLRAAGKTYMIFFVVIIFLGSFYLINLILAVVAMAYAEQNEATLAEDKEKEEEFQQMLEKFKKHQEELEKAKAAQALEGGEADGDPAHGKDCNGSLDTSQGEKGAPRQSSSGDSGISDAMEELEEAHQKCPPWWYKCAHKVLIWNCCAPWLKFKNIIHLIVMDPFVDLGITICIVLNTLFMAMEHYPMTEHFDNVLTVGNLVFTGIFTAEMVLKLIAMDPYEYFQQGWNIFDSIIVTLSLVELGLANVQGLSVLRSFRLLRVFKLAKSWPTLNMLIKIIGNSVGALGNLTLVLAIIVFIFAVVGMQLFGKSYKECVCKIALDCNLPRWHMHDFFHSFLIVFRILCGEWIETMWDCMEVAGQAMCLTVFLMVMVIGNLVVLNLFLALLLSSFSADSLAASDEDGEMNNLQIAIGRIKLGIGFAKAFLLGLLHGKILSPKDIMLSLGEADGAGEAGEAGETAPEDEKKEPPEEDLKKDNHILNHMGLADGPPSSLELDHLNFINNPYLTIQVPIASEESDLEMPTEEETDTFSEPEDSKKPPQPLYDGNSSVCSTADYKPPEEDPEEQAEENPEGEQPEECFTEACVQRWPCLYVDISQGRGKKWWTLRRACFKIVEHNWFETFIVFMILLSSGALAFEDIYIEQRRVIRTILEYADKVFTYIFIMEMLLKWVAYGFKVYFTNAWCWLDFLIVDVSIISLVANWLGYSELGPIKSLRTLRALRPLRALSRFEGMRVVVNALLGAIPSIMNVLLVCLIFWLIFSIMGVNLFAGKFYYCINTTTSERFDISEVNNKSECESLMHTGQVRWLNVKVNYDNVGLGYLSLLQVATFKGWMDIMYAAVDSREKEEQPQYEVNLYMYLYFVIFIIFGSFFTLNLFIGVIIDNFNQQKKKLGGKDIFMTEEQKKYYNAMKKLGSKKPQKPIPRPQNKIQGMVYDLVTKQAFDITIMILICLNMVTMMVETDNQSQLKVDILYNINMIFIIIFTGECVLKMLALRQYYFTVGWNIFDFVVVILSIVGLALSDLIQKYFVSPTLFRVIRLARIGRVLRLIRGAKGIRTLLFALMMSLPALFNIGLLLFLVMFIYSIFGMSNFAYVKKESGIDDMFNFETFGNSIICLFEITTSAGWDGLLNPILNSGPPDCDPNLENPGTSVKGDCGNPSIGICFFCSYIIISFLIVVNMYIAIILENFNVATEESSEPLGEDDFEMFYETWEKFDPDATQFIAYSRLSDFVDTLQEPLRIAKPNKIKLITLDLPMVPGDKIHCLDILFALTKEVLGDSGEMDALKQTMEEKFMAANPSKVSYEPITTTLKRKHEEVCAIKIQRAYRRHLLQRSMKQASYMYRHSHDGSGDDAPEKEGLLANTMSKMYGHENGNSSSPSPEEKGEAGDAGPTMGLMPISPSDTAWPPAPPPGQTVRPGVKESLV

| SMILES | IC50 [1] | IC50 [2] | IC50 [3] | IC50 [4] | Ratio IC50 (Homo sapiens [5]) | Ratio IC50 (Homo sapiens [6]) | Activity (Mus musculus [7]) | Activity (Mus musculus [8]) | Activity (Mus musculus [9]) | Activity (Mus musculus [10]) | Activity (Mus musculus [11]) | Activity (Mus musculus [12]) | Activity (Rattus norvegicus [13]) | Activity (Rattus norvegicus [14]) |
| --- | --- | --- | --- | --- | --- | --- | --- | --- | --- | --- | --- | --- | --- | --- |
| FC(F)(F)Oc1ccc2nc(N3CCNCC3)sc2c1 | 95 µM | 52 µM | 38 µM | 24 µM | 2.5 | 2.2 | 16.8 s | 18.8 s | 17.3 s | 15.5 s |  |  |  |  |
| CC(C)c1ccc2nc(N)sc2c1 | 118 µM |  | 89 µM |  | 1.3 |  |  |  |  |  |  |  |  |  |
| c1ccc(Oc2ccc3nc(N4CCNCC4)sc3c2)cc1 | 250 µM | 106 µM | 63 µM | 48 µM | 4 | 2.2 | 21.6 s | 26.2 s | 23.1 s | 19.9 s | inactive | inactive | inactive |  |
| CNCCN(C)c1nc2ccc(OC(F)(F)F)cc2s1 |  |  |  |  |  |  | 17.8 s | 18 s | 16.6 s | 16 s |  |  |  |  |
| Nc1nc2ccc(C(F)(F)F)cc2s1 | 58 µM |  | 53 µM |  | 1.1 |  |  |  |  |  |  |  |  |  |
| Nc1nc2ccc(OC(F)(F)F)cc2s1 [RILUZOLE] | 63 µM |  | 51 µM |  |  |  | 20.5 s | 25.6 s | 24.3 s | 18.3 s | inactive | inactive |  | Active |
